# Test results reported in ChEMBL document CHEMBL1156590, “Stereoselectivity of binding of alpha-(N-benzylamino)benzylphosphonic acids to prostatic acid phosphatase” (Bioorg Med Chem Lett, 2008).
# Target: T1, Prostatic acid phosphatase (Homo sapiens, UniProt P15309)
# T1 sequence (P15309 whole entry): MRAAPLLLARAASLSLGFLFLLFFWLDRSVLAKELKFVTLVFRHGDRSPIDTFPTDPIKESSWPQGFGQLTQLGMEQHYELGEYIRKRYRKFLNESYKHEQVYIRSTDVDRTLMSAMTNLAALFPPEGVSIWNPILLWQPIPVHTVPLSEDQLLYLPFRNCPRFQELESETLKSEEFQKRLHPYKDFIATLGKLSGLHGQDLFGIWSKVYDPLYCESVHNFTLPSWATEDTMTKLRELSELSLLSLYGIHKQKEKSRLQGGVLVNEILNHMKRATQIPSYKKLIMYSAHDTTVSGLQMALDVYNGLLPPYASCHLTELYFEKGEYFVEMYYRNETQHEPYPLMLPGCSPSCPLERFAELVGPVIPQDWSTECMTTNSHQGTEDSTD
# Assay: Inhibition of human prostatic acid phosphatase
row,IC50 [nM],Structure (SMILES)
1,1210,C[C@H](N[C@@H](c1ccccc1)P(=O)(O)O)c1ccccc1
2,26,C[C@@H](N[C@H](c1ccccc1)P(=O)(O)O)c1ccccc1
3,18,COc1ccc([C@@H](N[C@H](C)c2ccccc2)P(=O)(O)O)cc1
4,1070,COc1ccc([C@H](N[C@@H](C)c2ccccc2)P(=O)(O)O)cc1
